Assay results: patent US20260263402A1, “SYNERGISTIC COMBINATIONS OF REGULATED NECROSIS INHIBITORS WITH N-ACETYLCYSTEINE” (priority 2022, published 2026)

Tests used:
SH-SY5Y cells = assay: Cell viability (MTS) of SH-SY5Y cells treated with erastin (ferroptosis), neurotoxicity model; type: cell-based, Human; conditions: 10 μM erastin 24 h
Description: (§1) The SH-SY5Y neuronal cells (Human Neuroblastoma Cell line) and HT-22 cells (Mouse Hippocampal Neuronal Cell line) were maintained in standard DMEM with GlutaMAX medium (GIBCO), supplemented with 10% fetal bovine serum (GIBCO), at 37° C. in presence of 5% CO2.
(§2) SH-SY5Y, LLC-PK1, ARPE-19 and HT22 cells were seeded in 96-well plates at a density of 10 000 or 5000 cells per well respectively, following overnight incubation. Cells were treated with 10 μM (SH-SY5Y cells) or 0.5 μM (HT22 cells) of erastin or 2 μM of RSL3 (LLCPK1) or 10 mM of sodium iodate (ARPE-19 cells) for 24 h.
(§3) Erastin and RSL3 was purchased from Selleck Chemical and sodium iodate from Sigma Aldrich. Cell viability was assessed by MTS assay (CellTiter 96@D AQueous Non-Radioactive Cell Proliferation Assay; Promega, Fitchburg, WI, USA) according to the manufacturer's instructions. This assay is based on the reduction of the 3-(4,5-dimethylthiazol-2-yl)-5-(3-carboxymethoxyphenyl)-2-(4-sulfophenyl)-2H-tetrazolium (MTS) by viable cells to form a colored formazan product. After treatment, cells were incubated 3 h at 37° C., 5% CO2 with MTS. The absorbance was measured using a microplate reader at 490 and 630 nm and the percentage of viability was calculated by dividing the absorbance of testing compound by the absorbance of DMSO treated cells (control).
(§4) Cells (HT-22, SHSY-5Y, LLC-PK1 and ARPE 19) were seeded in a 96-well plate in their respective medium overnight. The next day they were treated with NAC or a derivative thereof including NACA or N-acetylcysteine ethyl ester (compound A), with inhibitor compound (compound B) or with a combination of the two compounds. The analysis of the effects of the combination of the association of compound A (NAC or a derivative thereof including NACA and N-acetylcysteine ethyl ester) with another compound B is based on the independence model of Bliss. In this approach, the effect of compound alone (EA or EB) or in combination is expressed as a probability (0≤E≤1). The combined effect of the compounds is defined by:
(§5) wherein EA and EB represent the effects of compound A and compound B respectively, and EAB the combined effect of the combination of A and B (expected effect on histogram). Calculation index CI is calculated as follows: CI=(EA+EB−EA*EB)/EAB wherein CI is synergistic, antagonistic or additive when CI is under, above or equal to 1 respectively [Duarte et al., Current Research in Pharmacology and Drug Discovery, 2022].
Cell death by ferroptosis was induced by erastin [Dixon et al., Cell, 2012, 149(5), 1060-1072] in both cell lines. Erastin is a well described ferroptosis inducer and also a molecular tool to study neuronal pathologies [Lewerenz et al., Front. Neurosci., 2018, 12: 214].

HT-22 cells = assay: Cell viability (MTS) of HT22 cells treated with erastin (ferroptosis), neurotoxicity model; type: cell-based, Mouse; conditions: 0.5 μM erastin 24 h
Description: as §1, §2, §3
Cells (HT-22, SHSY-5Y, LLC-PK1 and ARPE 19) were seeded in a 96-well plate in their respective medium overnight. […] In this approach, the effect of compound alone (EA or EB) or in combination is expressed as a probability (0≤E≤1). […]
as §5, with “2022]. […]” for “2022].”

LLC-PK1 cells = assay: Cell viability (MTS) of LLC-PK1 cells treated with RSL3; type: cell-based, Pig; conditions: 2 μM RSL3 24 h
Description: The LLC-PK1 cells (Pig Kidney Epithelial cells) were cultured in DMEM/F12(GIBCO), supplemented with 10% fetal bovine serum (GIBCO), at 37° C. in presence of 5% CO2.
as §2, §3
Cells (HT-22, SHSY-5Y, LLC-PK1 and ARPE 19) were seeded in a 96-well plate in their respective medium overnight. The next day they were treated with NAC or a derivative thereof including NACA or N-acetylcysteine ethyl ester (compound A), with inhibitor compound (compound B) or with a combination of the two compounds. […] In this approach, the effect of compound alone (EA or EB) or in combination is expressed as a probability (0≤E≤1). […]
as §5

[1] = test system: mice model of APAP intoxication; assay: In vivo mice model of APAP intoxication, plasma ALT; set-up: species or system C57Bl/6J male mice; conditions: for ALT plasma level: 8 h after APAP, APAP only ~3000, control ~100 IU/L
Description: Nine-week-old C57Bl/6J male mice were purchased from Janvier Labs (Le Genest St Isle, France). After one week of acclimatization in the animal house, mice were fasted overnight before experimentation. Acetaminophen (APAP) was purchased from Sigma-Aldrich (A70-85-100 g, batch #SCLF8273) and diluted at 20 mg/mL in PBS (preheated at 45° C.). Acetaminophen intoxication was induced in mice by intraperitoneal (i.p.) injection of APAP (400 mg/kg). One hour after APAP injection, mice were treated with inhibitors by intraperitoneal injection. N-acetylcysteine (NAC, A9165-25 g, Sigma-Aldrich, batch #SLCJ1628), the reference treatment for paracetamol intoxication, was diluted at 40 mg/mL in PBS Tween80 5% and injected via intraperitoneal route at a dose of 200 mg/kg. Compound 7 was diluted at 1 mg/ml or 2 mg/ml in PBS Tween80 5% and injected by intraperitoneal injection with increasing concentrations (2.5, 5 or 10 mg/kg) or in combination with NAC (200 mg/kg). There were two groups of control mice: the first one was injected via i.p. route with PBS Tween80 5% (Tween80 5%) and the second group, treated with APAP, was administered one hour after APAP with PBS Tween80 5% (APAP-Tween80 5%) via i.p.. Mice were slaughtered eight hours after APAP injection. Blood and liver were collected.
Serum alanine aminotransferase (ALT) plasma levels were measured according to the International Federation of Clinical Chemistry and Laboratory Medicine primary reference procedures using an Olympus AU2700 Autoanalyser (Olympus Optical).
Results were expressed as means SEM. Mean differences between two experimental groups were assessed using the non-parametric Mann-Whitney U-test. […] Calculated P values are integrated on histograms and graphs. Significance is shown as follows: $ P<0.05, $$ P<0.01, $$$ P<0.001 and $$$ P<0.0001 (comparison between APAP mice and APAP mice treated with NAC and/or compound 7); * P<0.05, ** P<0.01, *** P<0.001 and **** P<0.0001 (comparison between treated groups).
Nine Groups of Mice were Studied: • Tween80 5%, n=15 • APAP (400 mg/kg)+Tween 80 5%, n=31 • APAP (400 mg/kg)+NAC (200 mg/kg), n=15 • APAP (400 mg/kg)+compound 7 (2.5 mg/kg), n=23 • APAP (400 mg/kg)+compound 7 (5 mg/kg), n=21 • APAP (400 mg/kg)+compound 7 (10 mg/kg), n=21 • APAP (400 mg/kg)+compound 7 (2.5 mg/kg)+(NAC 200 mg/kg), n=9 • APAP (400 mg/kg)+compound 7 (5 mg/kg)+NAC (200 mg/kg), n=9 • APAP (400 mg/kg)+compound 7 (10 mg/kg)+NAC (200 mg/kg), n=13

ARPE-19 cells = assay: Cell viability (MTS) of ARPE-19 cells treated with sodium iodate, model of eye disease; type: cell-based, Human; conditions: 10 mM sodium iodate 24 h
Description: The ARPE-19 cells (Human Retinal pigment epithelial cell line) were cultured in standard DMEM/F12 medium (GIBCO), supplemented with 10% fetal bovine serum (GIBCO), at 37° C. in presence of 5% CO2.
as §2, §3, §4, §5
Age-related macular degeneration, or AMD, is characterized by vision loss caused by degeneration of the central cells of the retina, called the macula. […] One model used to study retinal cell death is that of human ARPE-19 cells, a retinal pigment epithelial cell line, in the presence of sodium iodate (NaIO3, a potent oxidizing agent) [Hanus et al. Cell Death Discov. 2016, 2, 16054][Chan et al., J. Biomed. Sci., 2019, 26:40].

[2] = NAC 200 mg/kg with compound 7 10 mg/kg i.p. one hour after APAP 400 mg/kg

Oc1ccc(-c2cc3ccccc3[nH]2)cc1 [Compound 1]
effect on viability, combined with NAC (Bliss model) (SH-SY5Y cells; FIG. 4, 1 μM cmpd 1 + 100 μM NAC): synergistic effect
effect on viability, compound alone (SH-SY5Y cells; FIG. 4, 1 μM cmpd 1 alone): significant effect
effect on viability, combined with N-acetylcysteine ethyl ester (Bliss model) (SH-SY5Y cells; FIG. 15, 2.5 μM Compound 1 + 100 μM N-acetylcysteine ethyl ester): synergistic effect
effect on viability, compound alone (SH-SY5Y cells; FIG. 15, 2.5 μM Compound 1 alone): significant effect
effect on viability, combined with NAC (Bliss model) (HT-22 cells; FIG. 7, 5 μM cmpd 1 + 100 μM NAC): synergistic effect
effect on viability, combined with NAC (Bliss model) (LLC-PK1 cells; FIG. 11, 1 μM Compound 1 + 500 μM NAC): synergistic effect

Oc1ccc(-c2cc3cccnc3[nH]2)cc1 [Compound 7, sibiriline]
effect on viability, combined with N-acetylcysteine ethyl ester (Bliss model) (SH-SY5Y cells; FIG. 14, 10 μM Compound 7 + 100 μM N-acetylcysteine ethyl ester): synergistic effect
effect on viability, compound alone (SH-SY5Y cells; FIG. 14, 10 μM Compound 7 alone): significant effect
effect on viability, combined with NAC (Bliss model) (HT-22 cells; FIG. 5, 25 μM cmpd 7 + 100 μM NAC): synergistic effect
effect on viability, combined with NAC (Bliss model) (LLC-PK1 cells; FIG. 10, 2.5 μM Compound 7 + 500 μM NAC): synergistic effect
protective effect against APAP toxicity, combination versus NAC alone or compound 7 alone ([1]; NAC 200 mg/kg in combination with compound 7 2.5, 5 or 10 mg/kg i.p., FIG. 9a-c): better and synergistic protective effect
protection against APAP toxicity [1, 2]: almost complete protection
ALT plasma level [1, 2]: ~ 200 IU/L
ALT plasma level ([1]; compound 7 10 mg/kg i.p. one hour after APAP 400 mg/kg i.p.): ~ 1000 IU/L
effect on ALT plasma levels, compound alone ([1]; compound 7 2.5, 5 or 10 mg/kg i.p. one hour after APAP 400 mg/kg, maximum effect at 10 mg/kg): reducing ALT plasma levels in a dose-dependent manner

Oc1ccc(-c2cc3ccc(Cl)nc3[nH]2)cc1 [Compound 37]
effect on viability, combined with NAC (Bliss model) (HT-22 cells; FIG. 6, 50 μM cmpd 37 + 100 μM NAC): synergistic effect

NCCOCCOc1ccc(-c2cc3cccnc3[nH]2)cc1 [Compound 45]
effect on viability, combined with NAC (Bliss model) (ARPE-19 cells; FIG. 1, 10 μM cmpd 45 + 100 μM NAC): synergistic effect
effect on viability, compound alone (ARPE-19 cells; FIG. 1, 10 μM cmpd 45 alone): significant effect

COc1cc(O)c2c(c1)OC(O)(c1ccc(OCc3ccccc3)cc1)CC2=O (stereo not shown) [Compound 46]
effect on viability, combined with NAC (Bliss model) (ARPE-19 cells; FIG. 2, 5 μM cmpd 46 + 50 μM NAC): synergistic effect
effect on viability, compound alone (ARPE-19 cells; FIG. 2, 5 μM cmpd 46 alone): significant effect
effect on viability, combined with NACA (Bliss model) (ARPE-19 cells; FIG. 13, 10 μM cmpd 46 + 125 μM NACA): synergistic effect
effect on viability, compound alone (ARPE-19 cells; FIG. 13, 10 μM cmpd 46 alone): significant effect
effect on viability, combined with NAC (Bliss model) (SH-SY5Y cells; FIG. 3, 25 μM cmpd 46 + 100 μM NAC): synergistic effect
effect on viability, compound alone (SH-SY5Y cells; FIG. 3, 25 μM cmpd 46 alone): significant effect
effect on viability, combined with N-acetylcysteine ethyl ester (Bliss model) (SH-SY5Y cells; FIG. 16, 25 μM Compound 46 + 100 μM N-acetylcysteine ethyl ester): synergistic effect
effect on viability, compound alone (SH-SY5Y cells; FIG. 16, 25 μM Compound 46 alone): significant effect
effect on viability, combined with NAC (Bliss model) (LLC-PK1 cells; FIG. 12, 25 μM Compound 46 + 500 μM NAC): synergistic effect

CC(=O)N[C@@H](CS)C(=O)O [NAC, N-acetylcysteine]
ALT plasma level ([1]; NAC 200 mg/kg i.p. one hour after APAP 400 mg/kg i.p.): ~ 1300 IU/L
